PMC6854942, “Simultaneous Determination of Three Bioactive Constituents from Bletilla striata by UPLC-MS/MS and Application of the Technique to Pharmacokinetic Analyses” (Evidence-based Complementary and Alternative Medicine : eCAM, 2019)
Several values for one entry are separate records, joined by “and”; a condition that tells them apart may be missing. Equal values may be shown once.

Assays:
[1] = Pharmacokinetic study in rats after oral administration of B. striata extract (UPLC-MS/MS of plasma); assay type: in vivo, Sprague-Dawley rats; conditions: for bioavailability: rats, AUC0−t oral (22.2 g/kg extract) vs i.v. (1.64 g/kg extract), dose-corrected, read-out: Bioavailability (absolute); for MRT last: read-out: MRT0–t; for MRT inf: read-out: MRT0–∞
Protocol: (§1) An ACQUITY™ UPLC system (Waters Corp., Milford, MA, USA) with a conditioned autosampler and the ACQUITY™ UPLC BEH C18 analytical column (50 mm × 2.1 mm, internal diameter, 1.7 μm; Waters Corp., Milford, MA, USA) were used, to which a 6 mm precolumn filter unit was added. Analysis was carried out with an elution gradient of (A) acetonitrile and (B) water (both containing 0.1% formic acid) at a flow rate of 0.35 mL/min as follows: 0–0.5 min (10% A), 0.5–1.0 min (10–30% A), 1.0–2.0 min (30–35% A), 2.0–3.0 min (35–38% A), 3.0–4.0 min (38–90% A), and 4.0–5.0 min (90–10% A). The column and autosampler were maintained at 45°C and 15°C, respectively. The injection volume was 2 μL.
(§2) Mass spectrometric detection was performed using a Waters ACQUITY™ TQD triple quadrupole tandem mass spectrometer (Waters Corp., Manchester, UK) with an ESI interface in the positive ionization mode. The MS conditions were as follows: capillary voltage, 3.0 kV; desolvation gas flow, 650 L/h of nitrogen; and cone gas flow, 50 L/h of nitrogen. The collision gas (Ar) flow for MS/MS was maintained at 0.16 mL/min for collision-induced dissociation (CID). The source and desolvation gas temperatures were 120°C and 350°C, respectively. The multiple reaction monitoring (MRM) mode was used for quantification. All data were acquired using Masslynx™ V 4.1 Software and processed using Quanlyna™ V4.1 (Waters Corp., Millford, MA, USA).
(§3) Ten microliters of the IS solution (puerarin, 10 μg/mL in methanol) and 50 μL of 1% formic acid were added to 100 μL of rat plasma. Proteins were precipitated by addition of 400 μL of methanol, vortexing for 1 min, sonication for 5 min, followed by centrifugation at 13225 ×g for 10 min at 4°C, collecting the supernatant in a centrifuge tube, and drying at 37°C N2. Subsequently, 300 μL of the initial mobile phase was dissolved, sonicated for 5 min, and centrifuged at 5°C and 13225 ×g for 5 min, and the supernatant was used for analysis by UPLC-MS/MS.
(§4) The twelve Sprague-Dawley rats were housed under a controlled temperature regimen (22 ± 1°C) and relative humidity of 50–70%. The animals were maintained on a 12 h light/12 h dark cycle and had free access to food and water. They were fasted for 12 h before each experiment but allowed to drink freely during this time. Before the experiment, the B. striata extracts' intravenous and oral dosing solutions were prepared in physiological saline at concentrations of 1.03 g/mL and 2.78 g/mL, respectively. The 12 rats were randomly divided into two groups with 6 rats in each group. Group 1 underwent oral administration (22.2 g/kg), and group 2 underwent intravenous administration (1.64 g/kg). Blood samples (0.3 mL) were collected from the external right jugular veins of the rats into heparinized tubes at the designated time points (0.033, 0.083, 0.167, 0.33, 0.5, 1, 1.5, 2, 10, 24, 36, and 48 h for group 1 and 0.033, 0.083, 0.167, 0.25, 0.33, 0.5, 0.75, 1, 1.6, and 2 h for group 2). The blood samples were immediately centrifuged at 3000 ×g for 5 min. The plasma was removed and frozen at −20°C until further analysis.
(§5) Data are represented as mean± standard deviation. To determine the pharmacokinetic parameters, the concentration-time data were analyzed by DAS 2.0 software (Mathematical Pharmacology Professional Committee of China, Shanghai, China). Statistical analysis was performed using the statistical software package Statistical Product and Service Solutions (SPSS 11.5, USA). The absolute bioavailability was calculated using the following equation: F (%) = [AUC0 − t (oral) × dose (i.v.)]/[AUC0 − t (i.v.) × dose (oral)]) × 100.

[2] = Stability of each compound in rat plasma (QC samples); assay type: in vitro ADME; conditions: n = 5
Protocol: The stability of each compound in rat plasma was evaluated using mixtures containing low, medium, or high concentrations of the QC sample (n = 5 for each concentration level). The stability of each compound was tested under three conditions: room temperature for 6 h, three freeze (−20°C)-thaw (room temperature) cycles, and storage at 4°C for 12 h.

[3] = Pharmacokinetic study in rats after intravenous administration of B. striata extract (UPLC-MS/MS of plasma); assay type: in vivo, Sprague-Dawley rats; conditions: intravenous administration of B. striata extract 1.64 g/kg, rat plasma, n = 6; for MRT last / MRT inf: Sprague-Dawley; for MRT last: read-out: MRT0–t; for MRT inf: read-out: MRT0–∞
Protocol: as §1, §2, §3, §4, §5

[4] = Sprague-Dawley, oral administration of B. striata extract 22.2 g/kg, rat plasma, n = 6
[5] = oral administration of B. striata extract 22.2 g/kg, rat plasma, n = 6
[6] = 3 freeze-thaw cycles (−20°C / room temperature), low QC (spiked 0.029 / 0.022 / 0.015 μg/mL)
[7] = 3 freeze-thaw cycles, high QC (spiked 36.78 / 13.75 / 23.78 μg/mL)
[8] = 3 freeze-thaw cycles, medium QC (spiked 4.09 / 2.75 / 2.64 μg/mL)
[9] = 6 h, room temperature, high QC (spiked 36.78 / 13.75 / 23.78 μg/mL)
[10] = 6 h, room temperature, low QC (spiked 0.029 / 0.022 / 0.015 μg/mL)
[11] = 6 h, room temperature, medium QC (spiked 4.09 / 2.75 / 2.64 μg/mL)
[12] = 12 h, 4°C, high QC (spiked 36.78 / 13.75 / 23.78 μg/mL)
[13] = 12 h, 4°C, low QC (spiked 0.029 / 0.022 / 0.015 μg/mL)
[14] = 12 h, 4°C, medium QC (spiked 4.09 / 2.75 / 2.64 μg/mL)

| Structure (SMILES) | bioavailability ([1]; Sprague-Dawley, rat, plasma) | Cmax [1, 4] | MRT last [1, 4] | MRT inf [1, 4] | AUC0–t [1, 5] | AUC0–∞ [1, 5] | Accuracy [2, 6] | Calculated concentration [2, 6] | Calculated concentration [2, 7] | Calculated concentration [2, 8] | Calculated concentration [2, 9] | Accuracy [2, 10] | Calculated concentration [2, 10] | Calculated concentration [2, 11] | Accuracy [2, 12] | Calculated concentration [2, 12] | Accuracy [2, 13] | Calculated concentration [2, 13] | Accuracy [2, 14] | Calculated concentration [2, 14] | further results |
| --- | --- | --- | --- | --- | --- | --- | --- | --- | --- | --- | --- | --- | --- | --- | --- | --- | --- | --- | --- | --- | --- |
| CC(C)C[C@@](O)(CC(=O)O)C(=O)OCc1ccc(O[C@@H]2O[C@H](CO)[C@@H](O)[C@H](O)[C@H]2O)cc1 [Gymnoside I, gymnoside I] | 9.8% | 3060 ± 4820 ng/mL | 12.4 ± 3.73 h | 16 ± 5.34 h | 20.56 ± 12.05 h∗μg/mL | 21.81 ± 12.04 h∗μg/mL | 100.3% | 0.022 ± 0.001 µg/mL | 13.92 ± 0.57 µg/mL | 2.74 ± 0.10 µg/mL | 13.69 ± 0.39 µg/mL | 100.2% | 0.022 ± 0.001 µg/mL | 2.77 ± 0.08 µg/mL | 96.1% | 13.22 ± 0.49 µg/mL | 95.4% | 0.021 ± 0.001 µg/mL | 97.5% | 2.68 ± 0.15 µg/mL | T max [1, 5]: 1.44 ± 2.29 h; T max ([1]; oral administration of B. striata extract 22.2 g/kg, rat plasma, n = 6, listed as gymnoside I): 0.16 h; MRT last [3]: 0.68 ± 0.07 h; MRT inf [3]: 0.93 ± 0.18 h; AUC0–t [3]: 15.47 ± 1.63 h∗μg/mL; AUC0–∞ [3]: 17.52 ± 2.66 h∗μg/mL |
| CC(C)C[C@@](O)(CC(=O)OCc1ccc(O[C@@H]2O[C@H](CO)[C@@H](O)[C@H](O)[C@H]2O)cc1)C(=O)OCc1ccc(O[C@@H]2O[C@H](CO)[C@@H](O)[C@H](O)[C@H]2O)cc1 [Militarine, militarine] | 0.6% | 3300 ± 3600 ng/mL | 5.62 ± 2.45 h | 9.31 ± 2.57 h | 3.10 ± 1.16 h∗μg/mL | 4.26 ± 1.93 h∗μg/mL | 100.7% | 0.015 ± 0.001 µg/mL | 21.8 ± 0.94 µg/mL | 2.62 ± 0.09 µg/mL | 21.3 ± 0.94 µg/mL | 106.7% | 0.016 ± 0.001 µg/mL | 2.62 ± 0.09 µg/mL | 92.3% | 21.95 ± 1.1 µg/mL | 100.1% | 0.015 ± 0.001 µg/mL | 93.2% | 2.46 ± 0.28 µg/mL | T max [1, 5]: 0.16 ± 0.11 h; T max ([1]; oral administration of B. striata extract 22.2 g/kg, rat plasma, n = 6, listed as militarine): 1.44 h; Accuracy [2, 7]: 91.7%; Accuracy [2, 8]: 99.2%; Accuracy [2, 9]: 89.6%; Accuracy [2, 11]: 99.2%; MRT last [3]: 0.36 ± 0.06 h; MRT inf [3]: 0.39 ± 0.07 h; AUC0–t [3]: 36.71 ± 5.66 h∗μg/mL; AUC0–∞ [3]: 37.22 ± 5.99 h∗μg/mL |
| CC(C)C[C@@](O)(CC(=O)O)C(=O)O [α-Isobutylmalic acid] | 87.5% and 87.4% | 23200 ± 5420 ng/mL | 15.6 ± 3.63 h | 19.7 ± 6.25 h | 458.12 ± 150.74 h∗μg/mL | 498.36 ± 173.09 h∗μg/mL | 93.1% | 0.027 ± 0.001 µg/mL | 34.17 ± 1.28 µg/mL | 3.83 ± 0.08 µg/mL | 34.95 ± 1.89 µg/mL | 103.4% | 0.03 ± 0.001 µg/mL | 3.77 ± 0.09 µg/mL | 94.4% | 34.71 ± 1.95 µg/mL | 96.6% | 0.028 ± 0.002 µg/mL | 95.8% | 3.92 ± 0.11 µg/mL | Tmax ([1]; Sprague-Dawley, rat, plasma, po, 22.2 g/kg, oral administration of B. striata extract 22.2 g/kg, rat plasma, n = 6): 6.44 ± 2.33 h; Accuracy [2, 7]: 92.9%; Accuracy [2, 8]: 93.6%; Accuracy [2, 9]: 95.0%; Accuracy [2, 11]: 92.2%; MRT last [3]: 0.45 ± 0.08 h; MRT inf [3]: 0.51 ± 0.1 h; AUC0–t [3]: 38.7 ± 4.72 h∗μg/mL; AUC0–∞ [3]: 39.62 ± 4.26 h∗μg/mL |
